What was measured:
day 7 skin wound = assay: In vivo playoff of custom-made phage library with microdialysis recovery and HTS in rat skin wound model; conditions: for Liver Count: HTS reads in liver after 1 h circulation and perfusion; for Wound without probe Count: HTS reads in wound tissue after 1 h circulation and perfusion; for Normal skin microdialysate Count / Wound microdialysate Count: HTS reads; for Normal skin microdialysate Count: probe under normal skin; for Normal skin microdialysate Count / Wound microdialysate Count / Wound microdialysate %: dialysate collected 1 h; for Wound microdialysate Count / Wound microdialysate %: rat; for Wound microdialysate Count: i.v. tail vein, 3-MDa probe under day 7 wound; for Liver %: share of HTS reads in liver after 1 h circulation and perfusion; for Wound without probe %: share of HTS reads in wound tissue after 1 h circulation and perfusion; for Wound microdialysate %: share of HTS reads, i.v.
Experimental: We next tested the applicability of the microdialysis-based system for extravascular phage recovery in the rat wound model. In the initial proof-of-concept studies, we used an in vivo “playoff” approach that allows parallel auditioning of the performance of peptide phages in low-complexity mixtures ([Pleiko et al, 2021]). Wound-bearing rats were dosed with a pool of phages displaying peptides known to home to angiogenic vessels and penetrate tissues, CAR (amino acid sequence CARSKNKDC) and iRGD (CRGDKGPDC). The CAR peptide uses a heparan sulfate proteoglycan (syndecan-4)–dependent pathway for the wound homing and penetration ([Järvinen & Ruoslahti, 2007], [2010]; [Maldonado et al, 2023]), whereas iRGD first homes to αv integrins in angiogenic vasculature followed by proteolytic cleavage of the peptide and binging to neuropilin-1, which activates a trans-tissue transport pathway, the CendR pathway ([Sugahara et al, 2009], [2010]; [Teesalu et al, 2009]). […] Peptides lacking tissue-penetrating properties were included as controls. The CRK (CRKDKC) peptide homes to angiogenic blood vessels, but remains bound to the blood vessels ([Järvinen & Ruoslahti, 2007]; [Agemy et al, 2010]). The test pool also included peptide phage clones identified during an in vivo phage display screen for peptides homing to skin wounds but not selected for further analysis at that time ([Järvinen & Ruoslahti, 2007]). As negative controls, we included phages from a naïve peptide phage library that display random peptides.
Microdialysis probes with 3-MDa cutoff were implanted under the center of a day 7 skin wound (peak of angiogenesis) in rats, or under normal skin (Fig S2). Care was taken not to rupture blood vessels during the probe insertion, and a proper probe location was confirmed at the end of the experiment. After insertion, the microdialysis device was run for 45 min to allow the local flow inside the catheter to be established (manufacturer’s recommendation) ([Joukhadar & Müller, 2005]; [Chaurasia et al, 2007]), followed by intravenous injection of the phage cocktail, and sampling of wound and control dialysates for 60 min. Subsequently, the animals were perfused to remove free phages, and wounds and control organs were collected for further analysis. […] No phages (including CAR and iRGD phages) were detected in the dialysates placed in the intact normal skin (Table 1).
The custom-made phage library for the in vivo validation was cloned on T7 415-1 backbone, grown in BL21 E. coli strain, and filter-sterilized. The phages were either cloned as described previously or picked randomly from a phage library ([Järvinen & Ruoslahti, 2007]; [Teesalu et al, 2009]; [Pemmari et al, 2020a]). Each phage clone was sequenced. The custom-made library was made by mixing an equal amount of each phage (titer 5 × 10^9).
(§1) For the in vivo microdialysis, CMA 402 Syringe Pump with Hamilton syringes was used to push and the Harvard P70 peristaltic pump (Harvard Apparatus) to pull the CMA perfusion fluid (CMA Microdialysis AB) and dialysate. Each of the CMA 402 two outputs was connected to the inlet spike of the CMA 12 custom-made 3-MDa probe (CMA Microdialysis AB) via CMA FEP tubing (CMA Microdialysis AB), and the outlet spike of the CMA 12 probe was further connected to Harvard P70 peristaltic pump and further to CMA Probe Shaft Clip (CMA Microdialysis AB) via CMA connector tubing (CMA Microdialysis AB). From the CMA Probe Shaft Clip, the dialysate was pumped into CMA sample tubes (CMA Microdialysis AB). Harvard 0.19-mm-diameter tubing (Harvard Apparatus) and Harvard 3 collar 1.52-mm tubing (Harvard Apparatus) were used with the Harvard P70 peristaltic pump. In addition, CMA tubing adaptors (CMA Microdialysis AB) were used for connecting tubes to syringes and probes. The system was flushed with 70% ethanol before any use.
Male Wistar rats were used for the in vivo validation experiment and the library screen. The rats were 27 wk old and weighed 490 g. […]

CHO-K cells = assay: Peptide internalization in vitro, confocal imaging, CHO-K cells; assay type: cell-based, Chinese hamster; conditions: FAM-labeled peptide 20 μM, 3 h, 37°C, confocal fluorescence imaging, representative of three experiments
Experimental: Figure 1. Microdialysis-captured peptides penetrate the cell membrane. […] CHO-K cells were grown on chamber slides. […] The scale bar is 20 μm. Images are representative of three individual experiments.
Plain growth medium was used as a negative control.

day 7 skin wounds = assay: In vivo phage display screen of naive CX7C T7 library using microdialysis and HTS; parameters: species or system rat; conditions: for Total counts / First hour (counts) / Second hour (counts): wound microdialysate; for Total counts: first 2 h; for First hour (counts): first hour after library injection, rat 7-d-old wound; for First hour (counts) / Second hour (counts): Ion Torrent HTS; for Second hour (counts): second hour after library injection
Source text: We next adopted microdialysis-based biopanning to identify new wound-penetrating peptides. We used a CX7^trinucC peptide T7 phage library (diversity 3.9 × 10^8) in which random amino acids are encoded by equally represented trinucleotides to prevent codon bias ([Pleiko et al, 2021]). The library was cloned into the genome of the T7 bacteriophage engineered for longer circulation half-life and reduced liver uptake ([Hodyra-Stefaniak et al, 2019]). For biopanning, 3.9 × 10^10 phages (∼100 copies of each phage clone) displaying the C7X^trinucC library were injected in the tail vein of rats with day 7 skin wounds. Microdialysates were collected from probes placed in wounds or normal skin (Table S1). Most of the phage recovery at the microdialysis probe happened during the first 2 h after library dosing. The wound dialysates yielded almost all phages introduced into the two microdialysis probes, only one phage clone was recovered from normal skin dialysate (Table S1). We observed that most of the peptide phage clones appeared in the microdialysate during the first 2 h after phage dosing (Table S1). To obtain representative tissue biodistribution of phage clones in relation to dialysates, the skin wound–bearing rats with no inserted dialysis probes were dosed with the naïve CX7^trinucC peptide library, followed by 30-min circulation, perfusion, collection of organs, and analysis of peptide landscapes. The two dialysates collected during the first 2 h were subjected to HTS (Table S2). Whole tissue samples from the wound with and without the probe (1 + 5 wounds) at 30 min and 5 h, as well as control samples from 14 different tissues (2 × 14) and from normal skin (1 x with and 2 x without probe), and two serum samples at the time of euthanasia (30 min and 5 h after the library injection) were subjected to HTS. […] However, the wound microdialysates contained 13 enriched peptide sequences (Table 2). […] A BLAST analysis on candidate peptide sequences was used to scan for sequence homologies with proteins related to angiogenesis, endocytosis, and wound healing (Table S3).
The phage library used in the in vivo screen with the microdialysis probe was in the 10-3b T7 backbone (5–15 peptide copies per phage), grown in BLT5403 E. coli strain, CsCl-purified, dialyzed in PBS, and filter-sterilized. The library was constructed via trinucleotide synthesis to prevent bias in the amount of different amino acids ([Kayushin et al, 1996]). The diversity of the library was 1 × 10^9 and the titer 5 × 10^10 per ml.
as §1
Male Wistar rats were used for the in vivo validation experiment and the library screen. The rats were 27 wk old and weighed 490 g. Two full-thickness circular wounds were created on a shaved and disinfected skin with a 12-mm-diameter biopsy punch and scissors under sevoflurane anesthesia (Sevoflurane Baxter, Baxter SA) and carprofen analgesia ([…]; Norocarp, Norbrook Laboratories). […]

Substance: CAELNDGLC [T7 phage clone of the custom-made library]
- Liver Count (day 7 skin wound): 1,851
- Wound without probe Count (day 7 skin wound): 1,082
- Normal skin microdialysate Count (day 7 skin wound): 0
- Wound microdialysate Count (day 7 skin wound): 0
- Liver % (day 7 skin wound): 0.70%
- Wound without probe % (day 7 skin wound): 4.98%
- Wound microdialysate % (day 7 skin wound): 0%

Substance: CARSKNKDC [CARSKNKDC (CAR), T7 phage clone displaying known wound-homing, tissue-penetrating peptide CAR]
- Liver Count (day 7 skin wound): 29,894
- Wound without probe Count (day 7 skin wound): 1,614
- Normal skin microdialysate Count (day 7 skin wound): 0
- Wound microdialysate Count (day 7 skin wound): 17,713
- Liver % (day 7 skin wound): 11.34%
- Wound without probe % (day 7 skin wound): 7.43%
- Wound microdialysate % (day 7 skin wound): 94.74%

Substance: CARSKNKDC [FAM-labeled synthetic CAR peptide (…), known cell- and tissue-penetrating homing peptide, reference compound]
- cellular uptake in CHO-K cells (CHO-K cells): accumulate in the CHO-K cells

Substance: CDDYQQISC
- Total counts (day 7 skin wounds): 21 counts
- First hour (counts) (day 7 skin wounds): 10 counts
- Second hour (counts) (day 7 skin wounds): 11 counts

Substance: CERESTKIC [T7 phage clone of the custom-made library]
- Liver Count (day 7 skin wound): 93,283
- Wound without probe Count (day 7 skin wound): 3,133
- Normal skin microdialysate Count (day 7 skin wound): 0
- Wound microdialysate Count (day 7 skin wound): 0
- Liver % (day 7 skin wound): 35.39%
- Wound without probe % (day 7 skin wound): 14.42%
- Wound microdialysate % (day 7 skin wound): 0%

Substance: CFCQLMYQC
- Total counts (day 7 skin wounds): 13 counts
- First hour (counts) (day 7 skin wounds): 8 counts
- Second hour (counts) (day 7 skin wounds): 5 counts

Substance: CKKNEINNC
- detection in skin wound tissue samples (day 7 skin wounds; HTS of whole wound tissue samples): found in one skin wound sample
- Total counts (day 7 skin wounds): 16 counts
- First hour (counts) (day 7 skin wounds): 6 counts
- Second hour (counts) (day 7 skin wounds): 10 counts

Substance: CKMLYEYHC
- Total counts (day 7 skin wounds): 18 counts
- First hour (counts) (day 7 skin wounds): 1 counts
- Second hour (counts) (day 7 skin wounds): 17 counts

Substance: CKSVKNREC [T7 phage clone of the custom-made library]
- Liver Count (day 7 skin wound): 108,554
- Wound without probe Count (day 7 skin wound): 14,429
- Normal skin microdialysate Count (day 7 skin wound): 2,473
- Wound microdialysate Count (day 7 skin wound): 0
- Liver % (day 7 skin wound): 41.18%
- Wound without probe % (day 7 skin wound): 66.39%
- Wound microdialysate % (day 7 skin wound): 0%

Substance: CLLGKNNSC [T7 phage clone of the custom-made library]
- Liver Count (day 7 skin wound): 785
- Wound without probe Count (day 7 skin wound): 0
- Normal skin microdialysate Count (day 7 skin wound): 0
- Wound microdialysate Count (day 7 skin wound): 0
- Liver % (day 7 skin wound): 0.30%
- Wound without probe % (day 7 skin wound): 0%
- Wound microdialysate % (day 7 skin wound): 0%

Substance: CLLIYNWSC
- Total counts (day 7 skin wounds): 17 counts
- First hour (counts) (day 7 skin wounds): 14 counts
- Second hour (counts) (day 7 skin wounds): 3 counts

Substance: CLSQTYRIC
- Total counts (day 7 skin wounds): 21 counts
- First hour (counts) (day 7 skin wounds): 19 counts
- Second hour (counts) (day 7 skin wounds): 2 counts

Substance: CLTVLSEQC
- Total counts (day 7 skin wounds): 15 counts
- First hour (counts) (day 7 skin wounds): 8 counts
- Second hour (counts) (day 7 skin wounds): 7 counts

Substance: CNGSALPVC [T7 phage clone of the custom-made library]
- Liver Count (day 7 skin wound): 3,300
- Wound without probe Count (day 7 skin wound): 0
- Normal skin microdialysate Count (day 7 skin wound): 0
- Wound microdialysate Count (day 7 skin wound): 0
- Liver % (day 7 skin wound): 1.25%
- Wound without probe % (day 7 skin wound): 0%
- Wound microdialysate % (day 7 skin wound): 0%

Substance: CNYLVEKNC
- Total counts (day 7 skin wounds): 23 counts
- First hour (counts) (day 7 skin wounds): 14 counts
- Second hour (counts) (day 7 skin wounds): 9 counts

Substance: CPKKHHLDC
- Total counts (day 7 skin wounds): 42 counts
- First hour (counts) (day 7 skin wounds): 19 counts
- Second hour (counts) (day 7 skin wounds): 23 counts

Substance: CRGDKGPDC [CRGDKGPDC (iRGD), T7 phage clone displaying tissue-penetrating homing peptide iRGD]
- Liver Count (day 7 skin wound): 8,709
- Wound without probe Count (day 7 skin wound): 1,172
- Normal skin microdialysate Count (day 7 skin wound): 0
- Wound microdialysate Count (day 7 skin wound): 984
- Liver % (day 7 skin wound): 3.30%
- Wound without probe % (day 7 skin wound): 5.39%
- Wound microdialysate % (day 7 skin wound): 5.26%

Substance: CRKDKC [CRKDKC (CRK), T7 phage clone displaying CRK peptide, homes to angiogenic vessels, lacks tissue penetration]
- Liver Count (day 7 skin wound): 17,235
- Wound without probe Count (day 7 skin wound): 303
- Normal skin microdialysate Count (day 7 skin wound): 0
- Wound microdialysate Count (day 7 skin wound): 0
- Liver % (day 7 skin wound): 6.54%
- Wound without probe % (day 7 skin wound): 1.39%
- Wound microdialysate % (day 7 skin wound): 0%

Substance: CRMKFYSEYC
- Total counts (day 7 skin wounds): 11 counts
- First hour (counts) (day 7 skin wounds): 2 counts
- Second hour (counts) (day 7 skin wounds): 9 counts

Substance: CYHDTYPNC
- Total counts (day 7 skin wounds): 28 counts
- First hour (counts) (day 7 skin wounds): 14 counts
- Second hour (counts) (day 7 skin wounds): 14 counts

Substance: CYWEDKNLC
- Total counts (day 7 skin wounds): 15 counts
- First hour (counts) (day 7 skin wounds): 6 counts
- Second hour (counts) (day 7 skin wounds): 9 counts

Reference: paper PMC11814485, “Screening of homing and tissue-penetrating peptides by microdialysis and in vivo phage display” (Life Science Alliance, 2025)
